Legend:
pPRAS40 = test: Western blot of pPRAS40 (readout of AKT activity) in MCF7 parental and CR2.5 cells; format: cell-based, human; details: MAP3K1-deficient MCF7 CR2.5 cell line, overnight incubation (FIG. 3)
Procedure: (§1) Control MCF7 (parental) and MAP3K1-deficient (CR2.5) cell lines cultured in full growth media and treated with either Compound A, Compound B and GDC-0068 as described previously. Following overnight incubation, cell lysates are prepared and analysed by Western blotting using antibodies specific for phosphorylated proteins in the PI3K pathway (FIG. 3).

pS6 RP (S235/236) = test: Western blot of pS6 RP (distal readout of PI3Kα activity) in MCF7 parental and CR2.5 cells; format: cell-based, human; details: overnight incubation (FIG. 3)
Procedure: as §1

pAKT (T308) = test: Immunoblot of phosphorylated AKT (T308) in PIK3CA mutant breast cancer cell lines; format: cell-based, human
Procedure: Protocol for Measuring Phosphorylated AKT (T308) in MCF7, T47D Cells.
Low-passage MCF7 and T47D cells were obtained from AZ Cell Bank Collection and cultured as described previously (Avivar-Valderas et al., MCB, 31(17):3616-29, 2011). Wild-type and MCF10A-PI3Kα^H1047R were provided by Horizon Discovery.
After culture, cells were lysed, and protein was analyzed by immunoblotting (IB) (Avivar-Valderas et al., MCB, 31(17):3616-29, 2011). Membranes were blotted using antibodies against MAP3K1 (Santa Cruz) phospho AKT (Thr308) (Cell Signaling Technology) and Vinculin (Sigma). Bound antibodies were detected with horseradish peroxidase (HRP)-conjugated secondary antibodies and chemiluminescence assays (Avivar-Valderas et al., MCB, 31(17):3616-29, 2011).
The effect of MAP3K1 loss of expression on the pharmacological activity of Compound A using the cell-lines generated via siRNA transfection was examined by monitoring the level of inhibition of signalling readouts downstream of PI3Kalpha. A major readout of the pathway is the phosphorylation of AKT at Threonine 308. This phosphorylation is carried out by PDK1, itself activated by PI3K-generated PIP3 (phosphatidyl inositol 3,4,5-trisphosphate). Further pathway readouts are phosphorylation of PRAS40 (Proline-Rich AKT1 Substrate) at Thr246. […]

[1] = tested on: MCF10A-H1047R parental cells; test: IncuCyte proliferation assay, MCF10A-H1047R parental cells; format: cell-based; details: 500 nM; MCF10A-H1047R parental cells (FIG. 4, FIG. 6)
Procedure: (§2) MCF7 and MCF10A cells were plated in 96 well plates at a density of 2000 cells per well in RPMI media containing 10% FBS or DMEM/F12 media containing 5% of HS (horse serum) respectively. After incubation at 37° C. for 16 hours, concentrations of Compound A, Compound B (30 μM to 117 nM) or AZD2014 (15 μM to 66 nM) were added to the assay plates. Plates were then placed in the IncuCyte and scheduled to be scanned every 6 h for 3 days. Relative percentage of confluence data was normalized to control DMSO treated cells and fitted to a nonlinear regression curve using PRISM (Graphpad).

[2] = tested on: MCF10A-H1047R CR2.3 cells; test: IncuCyte proliferation assay, MAP3K1 mutant clone H1047R-CR2.3; format: cell-based
Procedure: as §2

MCF7 parental cells = test: IncuCyte proliferation assay, MCF7 parental cells; format: cell-based, human; details: 500 nM; parental MCF7 cells (FIG. 4C-D, FIG. 6B)
Procedure: as §2

MCF7-CR1.4 cells = test: IncuCyte proliferation assay, MAP3K1 mutant clone MCF7-CR1.4; format: cell-based, human
MCF7 parental acini = test: 3D-Matrigel culture, acinus volume, MCF7 parental; format: cell-based, human; details: 500 nM every 3 days until day 15; control cultures (MCF7 parental) (FIG. 7A left)
MCF7 CR2.5 acini = test: 3D-Matrigel culture, acinus volume, MAP3K1-deficient MCF7 CR2.5; format: cell-based, human; details: 500 nM every 3 days until day 15; MAP3K1-deficient acini (FIG. 7A left)
[3] = tested on: MCF10A-H1047R control acini; test: 3D-Matrigel culture, cleaved caspase 3 (apoptosis), MCF10A-H1047R control acini; format: cell-based; details: 15 days (FIG. 7A right)
Procedure: (§3) For 3D cultures, cells were plated in commercially available growth factor-reduced Matrigel (Mgel) (BD Biosciences, San Diego, Calif.) and grown (Avivar-Valderas et al., MCB, 31(17):3616-29, 2011). Prior to fixation for IF analysis, acini were treated with 500 nM Compound B every 3 days until the endpoint (day 15). 3D-Matrigel MCF10A acinar structures were fixed at day 15 and processed for size measurement and IF microscopy analysis (Avivar-Valderas et al., MCB, 31(17):3616-29, 2011)
(§4) This might be explained by an increase of cell proliferation or/and reduction of cell death (anoikis in ECM-deprived cells). To test the latter, staining with caspase 3 (anoikis readout) and confocal equatorial sections to analyse lumen formation (main compartment in which anoikis takes place) were carried out.

[4] = tested on: MAP3K1-deficient MCF10A-H1047R acini; test: 3D-Matrigel culture, cleaved caspase 3 (apoptosis), MAP3K1-deficient MCF10A-H1047R acini; format: cell-based; details: 15 days (FIG. 7A right)
Procedure: as §3, §4

pS6 RP = pS6 RP staining of 3D-Matrigel acini, MCF7 parental and MCF7 CR2.5; format: cell-based, human; details: 2 μM per FIG. 7B legend
Procedure: as §3, with “Prior to fixation for IF analysis, acini were treated with 500 nM Compound B every 3 days until the endpoint (day 15).” left out
ECM-attached cells (located in the outer rim) were positive for pS6 RP in parental acini. As predicted, the number of pS6 RP positive cells was greater in MCF7-CR2.5 (FIG. 7B, grey bars).

[5] = MAP3K1-deficient MCF7 cells (CR2.5)

| Structure (SMILES) | inhibition of pPRAS40 (pPRAS40) | inhibition of pS6 RP activity (pS6 RP (S235/236); [5]) | inhibition of pS6 RP activity (pS6 RP (S235/236); parental MCF7 cells) | phosphorylation of AKT on Thr308 (pAKT (T308); 250 nM for 24 hours, control cells transfected with control siRNA duplex inactive on MAP3K1 mRNA (MCF7, T47D; FIG. 2A)) | inhibition of PI3K signalling, effect on pAKT on Thr308 by Western blotting (pAKT (T308); MAP3K1-deficient MCF7 clones CR1.4 and CR2.5 compared to parental MCF7 (FIG. 2B)) | effect on proliferation [1] | effect on proliferation ([2]; 500 nM, MAP3K1-mutant line derived from MCF10A-H1047R (FIG. 4, FIG. 6)) | increase of IC50 for proliferation relative to parental cells ([2]; clone H1047R-CR2.3 relative to MCF10A-H1047R parental cells (FIG. 5)) [fold] | effect on proliferation (growth) (MCF7 parental cells) | effect on proliferation (MCF7-CR1.4 cells; 500 nM, MCF7-CR1.4 (FIG. 4C-D, FIG. 6B)) | increase of IC50 for proliferation relative to parental cells (MCF7-CR1.4 cells; MCF7-CR1.4 relative to parental MCF7 cells (FIG. 5)) [fold] | acini volume (MCF7 parental acini) | acini volume, reduction by treatment (MCF7 CR2.5 acini) | number of positive cleaved caspase 3 events [3] | increase in number of positive cleaved caspase 3 events [4] | number of positive pS6 RP cells, reduction by treatment (pS6 RP; MCF7 CR2.5 acini) | number of positive pS6 RP cells (pS6 RP; parental MCF7 acini) |
| --- | --- | --- | --- | --- | --- | --- | --- | --- | --- | --- | --- | --- | --- | --- | --- | --- | --- |
| CC(C)NC[C@@H](C(=O)N1CCN(c2ncnc3c2[C@H](C)C[C@H]3O)CC1)c1ccc(Cl)cc1 [GDC-0068, ipatasertib, reference compound] | resistant | resistant to all treatments | efficiently inhibit |  |  |  |  |  |  |  |  |  |  |  |  |  |  |
| CCn1nc(C2CCN(C(=O)CCO)CC2)nc1-c1cnc(N)c(-c2nnc(C(C)(C)C)o2)n1 [Compound A, 1-(4-(5-(5-amino-6-(5-tert-butyl-1,3,4-oxadiazol-2-yl)pyrazin-2-yl)-1-ethyl-1H-1,2,4-triazol-3-yl)piperidin-1-yl)-3-hydroxypropan-1-one] | resistant | resistant to all treatments | efficiently inhibit | profound reduction | less pronounced |  |  |  |  |  |  |  |  |  |  |  |  |
| NC1(C(=O)N[C@@H](CCO)c2ccc(Cl)cc2)CCN(c2ncnc3[nH]ccc23)CC1 [Compound B, 4-amino-N-[(1S)-1-(4-chlorophenyl)-3-hydroxy-propyl]-1-(7H-pyrrolo[2,3-d]pyrimidin-4-yl)piperidine-4-carboxamide] | resistant | resistant to all treatments | efficiently inhibit |  |  | able to inhibit the proliferation | no effect | 10 | able to reduce growth | no effect | 3 | significantly reduced | partially reverted | significant increase | not significant | reverted | strongly reduced |
